What was measured:
Format in all cases: cell-based
[1] = Cytotoxicity (CC50) in mock-infected cells, MTT assay; conditions: human, HeLa cells (mock-infected), 50% cytotoxic concentration, read-out: CYTOTOX (CC50 μM)
Description: (§1) For HeLa cells, the drugs were measured for EC50 (50% maximal effective concentration), which is the concentration of a drug inducing a response halfway between the baseline and maximum, using an MTT assay. With regard to RD and MRC-5 cells, CPE was determined using FDA (Fluorescein diacetate) or MTT. In order to determine the effect of drug toxicity on efficacy results, at the time of inoculation with the virus, mock-infection was also included. A virus-free medium was added to a cell culture, which was then subjected to the same treatment as the mock-infected cells inoculated with the virus. That is, the medium was removed after one hour of incubation, and dilutions of drugs in the medium were added once more. Following incubation for 2-3 days, the cells were observed under a microscope and the drugs were determined for CC50 (50% cytotoxic concentration) at which 50% of the cells were killed, using an MTT assay in which counts of viable cells in mock-infected wells containing drugs were compared to those of viable cells in control wells containing no drugs. In an FDA hydrolysis assay, FDA was added to each well after removal of the medium, and incubated for 20-30 min before fluorescence intensity was measured using a spectrofluorometer to determine CPE in the same manner as in MTT.
That is, the survival rate (% survival) of mock-infected cells for cytotoxicity measurement was calculated using the Mathematical Formula 1 below: Cell Drug=Survival by [A(Drug)−A(Background solution)/A(Cell control)−A(Background×100% Solution)]
While 100% cell survival means no cytotoxicity of the drug, the highest cytotoxicity is reflected by 0% cell survival. The 50% cytotoxic concentration was defined as the concentration required to reduce the cell number by 50%. This concentration of the drug is represented as CC50. Higher values mean lower cytotoxicity. […]
In Mathematical Formulae 3 and 4 above, • OD (CC) represents the OD of the background cell culture that is neither induced by a virus nor treated by chemical, • OD (VC) represents the OD of the control cell culture that is induced by a virus but not treated by chemical, • OD (Virus+Compound) represents the OD of the cell culture infected by a virus that has been treated with a concentrated compound, • OD (Compound) represents the OD of the cell culture that has been treated with a concentrated compound only, and • OD (Blank) represents the OD of the well to which only the cell culture has been added.
The effective concentration (EC50) represents the concentration of a drug at which 50% of cells are allowed to survive by CPE of an induced virus, and the cytotoxicity concentration (CC50) represents the concentration of a drug at which a compound has killed 50% of cells, and they were calculated by the logarithmic interpolation.

[2] = test system: C15_C3 REPLICON; assay: C15_C3 replicon assay
[3] = test system: HRV A16; assay: HRV A16 CPE inhibition assay; conditions: Human rhinovirus sp.; HRV A16, cytopathic effect inhibition
Description: (§2) Bioactivity of the Compounds of the Invention was Determined Using the Following Methods. Determination of Drug Efficacy Against Picornaviruses Using Cytopathic Effect (CPE) Inhibition Assay
(§3) In the assay, HeLa (human cervical cancer cells), MRC-5 (human fetal lung fibroblast cells), and RD cells (derived from human rhabdomyosarcoma) were employed. For comparison, ribavirin (Riv), Pleconaril (pleco), and […] (BTA) were used as controls. Reagents were dissolved at a concentration of 10-40 mg/ml in 100% dimethyl sulfoxide (DMSO). Water-soluble reagents were dissolved in PBS (−) solution and stored at −20° C. On the day of the experiment, they were used in 3 fold to 5 fold concentrations in such a manner that the concentration of dimethyl sulfoxide in each well was between 0.5% and 1%.
(§4) Pharmaceutical efficacy was determined using a virus-induced cytopathic effect (CPE) inhibition assay. In this regard, after cells suitable for viruses were grown in 96-well plates, dilutions of viruses in DME supplemented with 2% FBS (DME/2% FBS) or MEM supplemented with 2% FBS (MEM/2% FBS) were inoculated in an amount of […] with a concentration corresponding to 100 CCID50 (50% cell culture infective dose) into each well of the plates, and incubated for 30 min-1 hr at 33° C. or 37° C. to allow the viruses to adsorb onto the cells. The culture medium was removed before aliquots of drug dilutions with various concentrations were added in an amount of 100 μl to each well. While HRV (human rhinovirus) was grown at 33° C., the other viruses were incubated in a 37° C. CO2 incubator for 2-3 days. Alternatively, the cells were cultured for 2-3 days without removal of the medium after they were added with 50 μl of each drug dilution having a 2-fold higher concentration and then with 50 μl of the virus dilution. Viruses were incubated in host HeLa cells at 37° C. for 2-3 days in DME/2% or MEM/2% FBS.
as §1
(§5) In addition, antiviral effects can be calculated using Mathematical Formula 2 below: Antiviral Effect=[A(Drug/Virus)−A(Virus Control)/A(Cell control)−A(Virus Control)]
(§6) If the survival rate is 100%, its antiviral effect is 100% whereas if the survival rate is 0%, its antiviral effect is none. […]
(§7) Specifically, cells grown to confluence in 96-well plates were infected with 100 50% cell culture infected doses (CCID50) of virus. After an adsorption period of 2 hrs at 37° C., the virus was removed and serial dilutions of the compounds were added. […] After removal of the medium, 90 μl of a culture medium and 10 μl of MTS-phenazine methosulfate (Promega, Leiden, The Netherlands) were added to each well. […]

[4] = test system: HRV B14; assay: HRV B14 CPE inhibition assay; conditions: Human rhinovirus sp.; HRV B14, cytopathic effect inhibition
Description: as §2, §3, §4, §1, §5, §6, §7

[5] = test system: HRV A29; assay: HRV A29 CPE inhibition assay; conditions: Human rhinovirus sp.; HRV A29, cytopathic effect inhibition
Description: as §2, §3, §4, §1, §5, §6, §7

Structure (SMILES)	CC50 [1]	EC50 [2]	EC50 [3]	EC50 [4]	EC50 [5]
Cc1[nH]c(C(=O)NC23C(=O)c4c(N)cccc4C2(O)Oc2cc(C(C)C)ccc23)c(C)c1S(N)(=O)=O (stereo not shown) [Example 25, N-(1-amino-4b-hydroxy-7-isopropyl-10-oxo-4b,10-dihydro-9bH-indeno[1,2-b]benzofuran-9b-yl)-3,5-dimethyl-4-sulfamoyl-1H-pyrrole-2-carboxamide]	27 µM	2.04 µM	0.14 µM	0.016 µM	–
Cc1cc(S(=O)(=O)N2CC[C@H](N(C)C)C2)[nH]c1C(=O)NC12C(=O)c3c(N)cccc3C1(O)Oc1cc([C@H]3C[C@@H]3C)ccc12 (mixture of isomers) [Example 11, N-(1-amino-4b-hydroxy-7-((1S,2S)-2-methylcyclopropyl)-10-oxo-4b,10-dihydro-9bH-indeno[1,2-b]benzofuran-9b-yl)-5-(((S)-3-(dimethylamino)pyrrolidin-1-yl)sulfonyl)-3-methyl-1H-pyrrole-2-carboxamide]	12.1 µM	2.54 µM	0.023 µM	0.016 µM	–
Cc1cc(S(=O)(=O)N2CCN(C)CC2)[nH]c1C(=O)NC12C(=O)c3c(N)cccc3C1(O)Oc1cc([C@H]3C[C@@H]3C)ccc12 (mixture of isomers) [Example 9, N-(1-Amino-4b-hydroxy-7-((trans)-2-methylcyclopropyl)-10-oxo-4b,10-dihydro-9bH-indeno[1,2-b]benzofuran-9b-yl)-3-methyl-5-((4-methylpiperazin-1-yl)sulfonyl)-1H-pyrrole-2-carboxamide]	25.6 µM	1.09 µM	0.02 µM	0.016 µM	–
C[C@H](c1ccc2c(c1)O[C@]1(O)c3cccc(N)c3C(=O)[C@]21NC(=O)[C@H]([C@H](C)O)N(C)C)C1CC1 [Example 15, (2S,3S)—N-((4bR,9bR)-1-amino-7-((S)-1-cyclopropylethyl)-4b-hydroxy-10-oxo-4b,10-dihydro-9bH-indeno[1,2-b]benzofuran-9b-yl)-2-(dimethylamino)-3-hydroxybutanamide]	45.2 µM	0.264 µM	0.213 µM	0.016 µM	–
Cc1c(S(C)(=O)=O)c[nH]c1C(=O)NC12C(=O)c3c(N)cccc3C1(O)Oc1cc([C@]3(C)C[C@@H]3C)ccc12 (stereo partly drawn) [Example 6, N-(1-amino-7-((1R,2S)-1,2-dimethylcyclopropyl)-4b-hydroxy-10-oxo-4b,10-dihydro-9bH-indeno[1,2-b]benzofuran-9b-yl)-3-methyl-4-(methylsulfonyl)-1H-pyrrole-2-carboxamide]	19.1 µM	1.18 µM	0.046 µM	0.016 µM	–
CCC(C)c1ccc2c(c1)OC1(O)c3cccc(N)c3C(=O)C21NC(=O)c1[nH]cc(S(C)(=O)=O)c1C (stereo not shown) [Example 23, N-(1-amino-7-(sec-butyl)-4b-hydroxy-10-oxo-4b,10-dihydro-9bH-indeno[1,2-b]benzofuran-9b-yl)-3-methyl-4-(methylsulfonyl)-1H-pyrrole-2-carboxamide]	22.4 µM	0.633 µM	0.071 µM	0.016 µM	–
Cc1c(S(C)(=O)=O)c[nH]c1C(=O)N[C@]12C(=O)c3c(N)cccc3[C@@]1(O)Oc1cc([C@@H]3C[C@H]3C)ccc12 [Example 1, N-((4bR,9bR)-1-amino-4b-hydroxy-7-((1R,2R)-2-methylcyclopropyl)-10-oxo-4b,10-dihydro-9bH-indeno[1,2-b]benzofuran-9b-yl)-3-methyl-4-(methylsulfonyl)-1H-pyrrole-2-carboxamide]	34.7 µM	4 µM	0.228 µM	0.016 µM	0.071 µM
Cc1c(S(C)(=O)=O)c[nH]c1C(=O)NC12C(=O)c3c(N)cccc3C1(O)Oc1cc([C@@H]3C[C@@H]3C)ccc12 (stereo partly drawn) [Example 16, N-(1-amino-4b-hydroxy-7-((1R,2S)-2-methylcyclopropyl)-10-oxo-4b,10-dihydro-9bH-indeno[1,2-b]benzofuran-9b-yl)-3-methyl-4-(methylsulfonyl)-1H-pyrrole-2-carboxamide]	37.7 µM	1.82 µM	0.199 µM	0.016 µM	0.104 µM
C[C@@H]1C[C@@H]1c1ccc2c(c1)O[C@]1(O)c3cccc(N)c3C(=O)[C@]21NC(=O)CN1CCC1 [Example 2, N-((4bR,9bR)-1-amino-4b-hydroxy-7-((1S,2R)-2-methylcyclopropyl)-10-oxo-4b,10-dihydro-9bH-indeno[1,2-b]benzofuran-9b-yl)-2-(azetidin-1-yl)acetamide]	27.3 µM	0.853 µM	0.092 µM	0.016 µM	–
Cc1c(C(=O)NC23C(=O)c4c(N)cccc4C2(O)Oc2cc(C(C)C)ccc23)[nH]c(S(=O)(=O)NCCN(C)C)c1C (stereo not shown) [Example 4, N-(1-amino-4b-hydroxy-7-isopropyl-10-oxo-4b,10-dihydro-9bH-indeno[1,2-b]benzofuran-9b-yl)-5-(N-(2-(dimethylamino)ethyl)sulfamoyl)-3,4-dimethyl-1H-pyrrole-2-carboxamide]	8.58 µM	2.39 µM	0.056 µM	0.016 µM	–
C[C@H](O)[C@@H](C(=O)NC12C(=O)c3c(N)cccc3C1(O)Oc1cc([C@H](C)C3CC3)ccc12)N(C)C (stereo partly drawn) [Example 10, (2S,3S)—N-(1-amino-7-((R)-1-cyclopropylethyl)-4b-hydroxy-10-oxo-4b,10-dihydro-9bH-indeno[1,2-b]benzofuran-9b-yl)-2-(dimethylamino)-3-hydroxybutanamide]	29.2 µM	0.632 µM	0.661 µM	0.016 µM	–
Cc1c(S(C)(=O)=O)c[nH]c1C(=O)NC12C(=O)c3c(N)cccc3C1(O)Oc1cc(C3CCC3C)ccc12 (stereo not shown) [Example 7, N-(1-amino-4b-hydroxy-7-(2-methylcyclobutyl)-10-oxo-4b,10-dihydro-9bH-indeno[1,2-b]benzofuran-9b-yl)-3-methyl-4-(methylsulfonyl)-1H-pyrrole-2-carboxamide]	12 µM	1.62 µM	0.065 µM	–	–

Reference: US12286423B2, “Antiviral 1,3-di-oxo-indene compounds” (Novartis AG, priority 2020, dated 2025)
